Data reported in patent US20060111288A1, “Peripheral benzodiazepine receptor independent superoxide generation” (priority 2004, published 2006).

Experiments:
[1] = test system: HL60 leukaemia cells; assay: Mitochondrial membrane potential depolarisation (DiOC6(3) fluorescence, flow cytometry); type: cell-based, human
Protocol: (§1) HL60 promyelocytic leukaemia, Jurkat T cell leukaemia cells lacking the PBR,(18) (19) (kindly provided by Dr D. E. Banker and Dr F. Applebaum, The Fred Hutchinson Cancer Research Center, USA), and BV173 leukaemia cells were maintained in exponential suspension cultures in PPMI 1640 medium supplemented with 10% fetal calf serum, 5 mM glutamine, 100 μg/ml streptomycin and 100 U/ml penicillin. Cells were grown in a humidified atmosphere of 5% CO2/95% air at 37° C. PK11195 was dissolved in ethanol at a stock concentration of 8.7 mg/ml, and added to cells at a 75 μM final concentration for 4 hours; vehicle alone was also used in medium.
(§2) A Becton Dickinson FACScan (Oxford) was used to acquire 10,000 events using forward and scatter detectors with logarithmic amplification. Lymphoid enriched gates were defined. Corresponding DiOC6(3) or CMH2DCFDA fluorescence was analysed using the FL1 (530 nm) band pass filter. Propidium iodide or ethidium fluorescence were analysed using the FL3 (620 nm) band pass filter. List mode Data was analysed using WINMDI 2.8. Fluorescence microscopy was performed using a Zeiss Axioskop four colour florescence microscope with digital capture via a computer running IPLab Spectrum software.
(§3) Cells were incubated for 20 minutes at 37° C. in the dark with the cationic lipophillic (amphipathic) probe DiOC6(3) (80 nM), then counter stained for 10 minutes with propidium iodide (20 μg/ml). DiOC6(3) is sequestered within the mitochondrial matrix due to the inner membrane potential (ΔΨm), according to the Nernst equation, dissipation leading to a reduction in mitochondrial retention and decreased cellular DiOC6(3) fluorescence. Collapse of ΔΨm was prevented by incubating cells for 30 minutes with 50 μM bongkrekic acid. Events with increased propidium iodide fluorescence were subtracted, by gating, from the DiOC6(3) histograms to eliminate dead cells, with loss of plasma membrane integrity. Dose-response curves used the calculating the proportion of DiOC6(3) low cells as the dependent variable on the ordinate. To measure MPT directly, cells were incubated with 1 μM calcein AM for 30 minutes, followed by 1 mM […]. Cobalt quenches calcein fluorescence, but cannot traverse an intact inner mitochondrial membrane to enter the mitochondrial matrix, to which calcein equilibrates. Opening of the PTPC allows cobalt to enter, reducing calcein fluorescence.

[2] = test system: HL60 leukaemia cells; assay: Direct measurement of MPT by calcein/cobalt quenching; type: cell-based, human; conditions: calcein AM plus cobalt, FIG. 1D/1E
Protocol: as §3

[3] = test system: HL60 cells; assay: Hydrogen peroxide generation (CMH2DCF fluorescence); type: cell-based, human
Protocol: as §2
(§4) O2^−· was detected by incubating cells for 15 minutes in 5 μM dihydroethidium, which is oxidized to ethidium. To test the effect of O2^−· […] on O2^−· generation, cells were treated with 100 μM MnTBAP for 45 minutes. Hydrogen peroxide was detected by loading cells for 30 minutes with 5 μM CM-H2DCFDA, and its formation inhibited by preincubation with 500 U/ml catalase for 30 minutes (21). Dose-response curves for CM-H2DCFDA used the calculated proportion of CM-H2DCFDA high cells as the dependent variable.

[4] = test system: BV173 leukaemia cells; assay: Hydrogen peroxide generation (CMH2DCF fluorescence) in PBR-positive cells; type: cell-based; conditions: PBR expressed, FIG. 3
Protocol: as §1, with “medium. O2^−· was detected by incubating cells for 15 minutes in 5 μM dihydroethidium, which is oxidized to ethidium. […] Hydrogen peroxide was detected by loading cells for 30 minutes with 5 μM CM-H2DCFDA, and its formation inhibited by preincubation with 500 U/ml catalase for 30 minutes (21). Dose-response curves for CM-H2DCFDA used the calculated proportion of CM-H2DCFDA high cells as the dependent variable.” for “medium.”

[5] = test system: Jurkat T cell leukaemia cells; assay: Hydrogen peroxide generation (CMH2DCF fluorescence) in PBR-negative cells; type: cell-based; conditions: PBR not expressed, FIG. 3
Protocol: as §1, with “medium. O2^−· was detected by incubating cells for 15 minutes in 5 μM dihydroethidium, which is oxidized to ethidium. […] Hydrogen peroxide was detected by loading cells for 30 minutes with 5 μM CM-H2DCFDA, and its formation inhibited by preincubation with 500 U/ml catalase for 30 minutes (21). Dose-response curves for CM-H2DCFDA used the calculated proportion of CM-H2DCFDA high cells as the dependent variable.” for “medium.”

[6] = test system: leukaemia cells; assay: Superoxide generation (dihydroethidium to ethidium fluorescence); type: cell-based
Protocol: as §2, §4

[7] = test system: DoHH2 cells; assay: Apoptosis induction in the presence and absence of the ROS scavenger MnTBAP; type: cell-based; conditions: 24, 48, 72 hr, 1000 micromolar MPTP, 100 micromolar PK11195, 50 micromolar HA14-1, FIG. 5
Protocol: DoHH2 cells, a lymphoma cell line, were treated with MPTP, PK11195 and HA14-1 in the presence and absence of MnTBAP, a scavenger of ROS. […] MnTBAP inhibited MPTP-induced and PK11195-induced apoptosis, but not apoptosis induced by HA14-1. The three columns in each lane represent three time courses (L to R: 24 hr, 48 hr and 72 hr). […] The induction of apoptosis at the same time points as a result of treatment with 1000 micromolar MPTP is shown in lane “1000”.
The blockade of MPTP induction of apoptosis by MnTBAP parallels that of PK11195.
DoHH2 cells, a lymphoma cell line with high levels of the […] protein Bcl-2 due to a translocation between chromosome 14 and 18 (where the Bcl-2 gene is located), were exposed to MPTP, PK11195 and HA 14-1 in the presence and absence of the mitochondrial ROS scavenger, MnTBAP.

[8] = test system: primary chronic lymphatic leukaemia cells; assay: Apoptosis induction in primary leukaemia cells; type: cell-based; conditions: primary chronic lymphatic leukaemia cells (higher NADPH oxidase than normal cells)
[9] = test system: normal, non-malignant lymphocytes; assay: Apoptosis induction in normal lymphocytes; type: cell-based
[10] = test system: peripheral benzodiazepine receptor (PBR); conditions: references 1, 2; cited from earlier work

Question: For `CCC(C)N(C)C(=O)c1cc2ccccc2c(-c2ccccc2Cl)n1` (centres unmarked) [PK11195, 1-(2-chlorophenyl)-N-methyl-N-methyl-N-(1-methylpropyl)-isoquinoline carboxamide], which “time until reduction in DiOC6(3) fluorescence is detectable” value ([1]; PK11195 treated) is on record?
Answer: Its value is ≤ 3 h.

Question: What about the “DiOC6(3) fluorescence (collapse of mitochondrial ΔΨm)” value ([1]; PK11195 treated vs control, FIG. 1A/1B) of the same molecule?
Answer: Its value is “reduction in DiOC6(3) fluorescence”.

Question: And the “mitochondrial calcein fluorescence (MPT, open PTPCs)” value [2]?
Answer: The value was “quenched”.

Question: What about the “concentration range in which CMH2DCF fluorescence increased” value ([3]; HL60 cells, concentration dependent, FIG. 2A) of the same molecule?
Answer: The value was 50 to 100 µM.

Question: What about the “CMH2DCF fluorescence (generation of H202)” value [4] of the same molecule?
Answer: The value was “increase in CMH2DCF fluorescence”.

Question: What about the “CMH2DCF fluorescence (generation of H202)” value [5] of the same molecule?
Answer: Its value is “increase in CMH2DCF fluorescence”.

Question: And the “ethidium fluorescence (O2−· generation)” value ([6]; following PK11195 treatment vs control, FIG. 4A)?
Answer: The value was “early increase in ethidium fluorescence”.

Question: What about the “effect of MnTBAP on apoptosis induced by the compound” value (shortened to “effect of MnTBAP on apoptosis induced”) [7] of the same molecule?
Answer: The value was “inhibited”.

Question: And the induction of apoptosis [8]?
Answer: Its induction of apoptosis is “induces apoptosis”.

Question: And the induction of apoptosis [9]?
Answer: The induction of apoptosis was “does not do so”.

Question: And the “binding affinity to the PBR” value [10]?
Answer: Its value is “nanomolar”.

Question: Which “effect of inhibitor on PK11195 mediated mitochondrial depolarisation” value ([1]; pre-treatment with 50 μM bongkrekic acid for 30 minutes, FIG. 1C) does the source give for `CO[C@H](C/C=C\C=C\CC/C=C/C[C@H](C)/C=C/C(=C\C(=O)O)CC(=O)O)/C(C)=C\C=C(/C)C(=O)O` [BA, Bongkrekic acid] here?
Answer: The value was “prevented”.

Question: Which “effect on PK11195 induced increase in CMH2DCF fluorescence” value ([3]; HL60 cells preincubated with catalase 500 U/ml, FIG. 2B) does the source give for catalase here?
Answer: The value was “inhibited”.

Question: Which results are given for `O=C(O)c1ccc(C2=C3C=CC(=N3)C(c3ccc(C(=O)O)cc3)=c3ccc([nH]3)=C(c3ccc(C(=O)O)cc3)c3ccc([n-]3)C(c3ccc(C(=O)O)cc3)c3ccc2[n-]3)cc1.[Cl-].[Mn+3]` (centres unmarked) [MnTBAP, Manganese (III) tetrakis (4-benzoic acid) porphyrin chloride]?
Answer: effect on rate of PK11195 induced mitochondrial depolarisation (rate of reduction of DiOC6(3) fluorescence) ([1]; presence vs absence of MnTBAP, FIG. 4C): Reduction in the rate of inner mitochondrial membrane depolarisation; effect on PK11195 induced increase in ethidium fluorescence ([6]; 100 μM MnTBAP, FIG. 4B): inhibited

Question: With `CN1CC=C(c2ccccc2)CC1` [MPTP, 1-methyl-4-phenyl-1,2,3,6-tefrahydropyridine] as the molecule, how does the “effect of MnTBAP on apoptosis induced” value [7] read?
Answer: The value was “inhibited”.

Question: Which “effect of MnTBAP on apoptosis induced” value [7] does the source give for `CCOC(=O)C1=C(N)Oc2ccc(Br)cc2C1C(C#N)C(=O)OCC` (centres unmarked) [HA14-1] here?
Answer: Its value is “not blocked”.
